According to the NIST ThermoML archive (doi:10.1021/je900812v):

What was measured:
[1] = Liquid; for mass density: 298.15 K, 101.33 kPa, Pycnometric method
[2] = Boiling temperature at pressure P; details: 101.3 kPa; Liquid; Ebulliometric method (Recirculating still)
[3] = refractive index (Na D-line) (dimensionless); details: 298.15 K; 101.33 kPa; Liquid; Standard Abbe refractometry

CC(C)CCO [3-methylbutan-1-ol]
Details | mass density [kg/m3]
[1] | 807.6

[1]
Details | vapor or sublimation pressure [kPa]
336.35 K | 5.27
346.9 K | 9.25
354.2 K | 12.96
354.3 K | 13.24
356.85 K | 14.83
359.75 K | 17.09
360.65 K | 17.61
363.55 K | 20.13
364.05 K | 20.81
365.45 K | 21.98
368.3 K | 25.18
369.5 K | 26.24
371.5 K | 28.64
380.65 K | 41.65
381.65 K | 43.64
389.6 K | 59.58
391.35 K | 64.3
392.65 K | 66.58
395.55 K | 74.19
396.9 K | 77.47
398.25 K | 81.46
403.05 K | 96.21
403.75 K | 99.99
404.55 K | 101.33
405.15 K | 103.46
408.05 K | 114.26
410.95 K | 125.72
413.05 K | 133.86

CCCCCOC(C)=O [pentyl ethanoate]
Details | Boiling temperature at pressure P [°C] | mass density [kg/m3] | refractive index
[1] | – | 872.3 | –
[2] | 148.40 | – | –
[3] | – | – | 1.4005

Details | vapor or sublimation pressure [kPa]
[1], 421.55 K, Ebulliometric method (Recirculating still) | 101.3

CC(=O)OCCC(C)C [3-methylbutyl ethanoate]
Details | mass density [kg/m3] | refractive index
[1] | 866.4 | –
[3] | – | 1.39893

[1]
Details | vapor or sublimation pressure [kPa]
368.15 K | 22.4
369.35 K | 23.4
370.65 K | 24.6
371.85 K | 25.7
372.45 K | 26.3
380.65 K | 35.3
381.75 K | 36.7
387 K | 43.9
387.9 K | 45.2
390.95 K | 50
392.75 K | 52.9
394.25 K | 55.5
395.65 K | 58
398.65 K | 63.7
401.85 K | 70.1
403.35 K | 73.3
407.15 K | 81.9
409.55 K | 87.8
410.95 K | 91.3
412.85 K | 96.3
414.15 K | 99.8
414.85 K | 101.7
415.35 K | 103.1
416.45 K | 106.2

CCCCCO [pentan-1-ol]
Details | Boiling temperature at pressure P [°C] | mass density [kg/m3] | refractive index
[1] | – | 811.2 | –
[2] | 137.80 | – | –
[3] | – | – | 1.4077

Details | vapor or sublimation pressure [kPa]
[1], 410.95 K, Ebulliometric method (Recirculating still) | 101.3
